Assay results taken from US20200297725A1, “ALLOSTERIC BCR-ABL PROTEOLYSIS TARGETING CHIMERIC COMPOUNDS” (YALE UNIVERSITY, priority 2019, published 2020).
“Also recorded” adds a separate entry of the source. Read-outs that look alike come from different tables or passages of the source.

Key:
[1] = tested on: K562 cells; test: K562 xenograft model in athymic mice; type: in vivo; settings: 200 mg/kg IP once every 24 hours, day 4-6
Description: K562 cells were implanted subcutaneously into the flank of athymic mice and tumors were allowed to develop to approx. 200 mm^3. Animals were then randomised into treatment or vehicle groups on day 1. On day 4-6, animals were either treated with exemplary compound GMB-805 (Compound 19; 200 mg/kg) or vehicle control by IP injection once every 24 hours.
All in vivo experiments were conducted in accordance with institutional guidelines and were approved by Yale Institutional Animal Care & Use Committee. Mice were housed in pathogen-free animal facilities and with access to food and water ad libitum. K562 cells in Matrigel (Corning Life Sciences) were injected subcutaneously into the flank of athymic mice (Charles River) and allowed to proliferate until tumors reached −200 mm^3 at which point mice were randomized into treatment groups and treated I.P. with vehicle or exemplary compound once a day at 200 mg/kg for 3 days. Tumors were measured via caliper and volumes calculated following equation:
where V=volume, L=Length and W=Width

[2] = molecular target: T1, BCR-ABL1 (Homo sapiens, UniProt P00519); test: BCR-ABL1 / c-ABL1 degradation in K562 cells by immunoblot; type: cell-based; set-up: K562 cell lines were purchased from ATCC; BCR N-terminal portion (fusion partner, human BCR P11274); host or cells: K562; the other entry of the earlier key: BCR (P11274, Breakpoint cluster region protein); settings: for DC50 / BCR-Abl and c-Abl levels on co-treatment with GMB-805 (Compound 19) / BCR-ABL1 and c-ABL1 levels on co-treatment with Compound 10: K562 cells; for BCR-Abl and c-Abl levels on co-treatment with GMB-805 (Compound 19): 1 μM GMB-805, 8 hours; for BCR-ABL1 and c-ABL1 levels on co-treatment with Compound 10: 8 hour treatment, compared to Compound 10 alone
Description: The cells were collected at 300 g for 3 min. […] The total protein concentrations were determined by Pierce BCA Protein Assay and 30-50 μg of protein was loaded onto 10% Tris-Glycine gels. After standard gel electrophoresis, the separated proteins were transferred to nitrocellulose by wet transfer. The immunoblots were then processed by standard procedures and incubated with the respective antibodies. Band intensities were quantified by Bio-Rad's Image Lab software.
Gels were transferred and then blocked in TBS-Tween buffer with 5% BSA. […] Following incubation with appropriate HRP-conjugated secondary antibodies, membranes were imaged on a BioRad ChemiDoc using BioRad Clarity Western ECL substrate and Thermo Super Signal West Femto Maximum Sensitivity substrate.
(§1) Following centrifugation at 13,000×g for 15 minutes at 4° C. to pellet insoluble materials, the protein concentrations of the supernatants were quantitated by BCA assay (Thermo Fisher Scientific). Protein samples were resolved by SDS-PAGE, transferred to nitrocellulose, blocked with 5% non-fat milk and probed with the marked antibodies. Immunoblots were developed using enhanced chemiluminescence and visualized using a Bio-Rad Chemi-Doc MP Imaging System with Image Lab v.5.2.1 software (Bio-Rad Laboratories).
Target sequence in this assay (P00519 with tags, fused parts or gaps): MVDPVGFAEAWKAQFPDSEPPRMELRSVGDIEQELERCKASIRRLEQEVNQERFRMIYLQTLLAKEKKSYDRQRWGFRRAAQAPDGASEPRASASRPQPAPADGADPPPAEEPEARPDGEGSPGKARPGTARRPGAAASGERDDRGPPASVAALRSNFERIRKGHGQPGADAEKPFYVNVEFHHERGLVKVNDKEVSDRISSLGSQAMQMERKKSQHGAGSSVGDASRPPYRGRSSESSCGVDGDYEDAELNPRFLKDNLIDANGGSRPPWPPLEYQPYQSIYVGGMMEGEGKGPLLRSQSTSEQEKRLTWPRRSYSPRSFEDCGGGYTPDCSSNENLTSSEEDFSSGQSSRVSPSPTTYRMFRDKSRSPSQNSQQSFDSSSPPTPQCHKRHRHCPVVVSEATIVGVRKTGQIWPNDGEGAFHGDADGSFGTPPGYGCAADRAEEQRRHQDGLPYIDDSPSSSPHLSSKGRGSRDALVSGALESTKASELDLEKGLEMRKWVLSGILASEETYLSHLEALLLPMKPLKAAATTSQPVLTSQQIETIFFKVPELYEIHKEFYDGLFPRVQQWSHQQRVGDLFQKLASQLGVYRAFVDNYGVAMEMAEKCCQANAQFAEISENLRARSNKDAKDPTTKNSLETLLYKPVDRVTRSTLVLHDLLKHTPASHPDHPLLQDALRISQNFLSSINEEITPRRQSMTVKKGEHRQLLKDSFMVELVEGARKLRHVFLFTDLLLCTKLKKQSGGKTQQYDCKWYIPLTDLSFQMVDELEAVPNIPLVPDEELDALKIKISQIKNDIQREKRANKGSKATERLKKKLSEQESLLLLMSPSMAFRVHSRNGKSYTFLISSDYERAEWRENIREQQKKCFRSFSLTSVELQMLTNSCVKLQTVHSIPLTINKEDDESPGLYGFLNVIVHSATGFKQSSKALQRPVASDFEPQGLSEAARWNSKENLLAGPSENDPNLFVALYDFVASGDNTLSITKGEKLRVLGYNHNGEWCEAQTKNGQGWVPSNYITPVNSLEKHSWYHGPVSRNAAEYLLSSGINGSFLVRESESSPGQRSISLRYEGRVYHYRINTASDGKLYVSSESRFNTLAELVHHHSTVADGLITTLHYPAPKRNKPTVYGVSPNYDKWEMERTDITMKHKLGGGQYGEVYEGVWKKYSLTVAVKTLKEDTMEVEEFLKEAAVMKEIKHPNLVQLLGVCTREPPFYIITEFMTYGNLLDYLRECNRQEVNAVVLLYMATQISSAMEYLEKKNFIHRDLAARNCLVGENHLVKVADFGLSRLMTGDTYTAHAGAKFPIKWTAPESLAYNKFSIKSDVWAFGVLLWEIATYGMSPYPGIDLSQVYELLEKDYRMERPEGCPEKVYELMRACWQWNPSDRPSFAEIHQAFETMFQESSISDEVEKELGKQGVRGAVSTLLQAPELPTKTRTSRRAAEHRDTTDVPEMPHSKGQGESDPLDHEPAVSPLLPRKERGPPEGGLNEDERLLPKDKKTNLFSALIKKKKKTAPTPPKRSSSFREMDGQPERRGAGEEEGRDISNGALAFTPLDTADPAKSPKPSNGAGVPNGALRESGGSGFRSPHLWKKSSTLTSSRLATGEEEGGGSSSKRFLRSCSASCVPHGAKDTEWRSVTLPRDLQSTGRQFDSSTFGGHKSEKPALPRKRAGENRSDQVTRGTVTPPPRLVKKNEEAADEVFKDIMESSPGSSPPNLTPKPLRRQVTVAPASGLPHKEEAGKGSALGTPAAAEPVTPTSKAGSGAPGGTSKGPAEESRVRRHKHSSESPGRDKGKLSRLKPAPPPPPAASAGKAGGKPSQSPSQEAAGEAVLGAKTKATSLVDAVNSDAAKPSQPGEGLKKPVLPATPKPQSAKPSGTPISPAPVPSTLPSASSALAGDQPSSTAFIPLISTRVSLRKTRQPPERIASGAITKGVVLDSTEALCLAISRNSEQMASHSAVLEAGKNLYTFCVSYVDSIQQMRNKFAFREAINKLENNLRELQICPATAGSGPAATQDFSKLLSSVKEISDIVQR

[3] = Pharmacokinetics in mouse; type: in vivo; settings: 10 mg/kg IP
Description: The pharmacokinetic properties were determined at Pharmaron, China. The exemplary compound was formulated (in 5% EtOH & 5% Solutol HS15 in D5W(ESD-2)) and administered by intraperitoneal (I.P.) injection at a dosing level of 10 mg/kg. Plasma samples were collected at 0.25 hours, 0.5 hours, 1 hour, 2 hours, 4 hours, 8 hours, and 24 hours following dosing.
Acetonitrile was added to precipitate protein and the samples were vortexed for 30 second, centrifuged (4000 rpm, 15 minutes), diluted with water and the compound concentration determined by LC/MS/MS according to a standard curve.

[4] = tested on: K562 cells; test: K562 cell proliferation assay; type: cell-based; settings: Homo sapiens
Description: (§2) Cell lines and patient samples were exposed to dose ranges of single or combination agents and incubated for 3 days at 37° C., 5% CO2 and subjected to a CellTiter 96 AQueous One solution cell proliferation assay (Promega). IC50 values calculated and analyzed using Prism 6 software (GraphPad).

[5] = tested on: healthy donor CD34+ cells; test: Effect on healthy donor CD34+ cells; type: cell-based, human; settings: proliferation and apoptosis
[6] = tested on: primary CML CD34+ patient cells; test: Proliferation of primary CML patient CD34+ cells; type: cell-based, human; settings: CD34+ cells from newly diagnosed CML patients
Description: as §2

[7] = molecular target: T1, BCR-ABL1; test: BCR-ABL1 signaling and scaffolding in K562 cells (RPPA, immunoblot); type: cell-based; set-up: K562 cell lines were purchased from ATCC; BCR N-terminal portion (fusion partner, human BCR P11274); host or cells: K562; the other entry of the earlier key: BCR (P11274, Breakpoint cluster region protein)
Excerpt: (§3) Samples were lysed in 1× Cell Signaling lysis buffer (#9803S) supplemented with PMSF and complete mini tablets (Sigma #11836153001). Lysates were quantified and separated on 4-15% Tris-glycine polyacrylamide gels. Gels were transferred and then blocked in TBS-Tween buffer with 5% BSA. The following primary antibodies were used: tABL, BD #554148 anti-mouse 1:400; c-ABL1, SantaCruz #24-11 anti-mouse 1:1000; B-tubulin, Millipore #05-66-MI anti-mouse 1:5000; pSTAT5, # CS9351S anti-rabbit 1:1000 pSTAT5, # CS4322 anti-rabbit 1:1000; pBCR-Abl, # CS2865 anti-rabbit 1:1000; pCRKL, # CS491 anti-rabbit 1:1000; pAKT, # CS4060 anti-rabbit 1:1000; pERK, # CS4695 anti-rabbit 1:1000; pSHP-2, Abcam #62322 anti-rabbit 1:1000; pGAB1, # CS3233 anti-rabbit 1:1000; pGAB2, # CS3882 anti-rabbit 1:1000; pSHC, # CS2434 anti-rabbit 1:1000; VHL, # CS68547 anti-rabbit 1:1000; pCRKL, # CS3181S anti-rabbit 1:1000. Following incubation with appropriate HRP-conjugated secondary antibodies, membranes were imaged on a BioRad ChemiDoc using BioRad Clarity Western ECL substrate and Thermo Super Signal West Femto Maximum Sensitivity substrate.
RPPA was performed in the MDACC CCSG core as described at http://www.mdanderson.org/education-and-research/resources-for-professionals/scientific-resources/core-facilities-and-services/functional-proteomics-rppa-core/index.html.
as §1, with “K562 cells were treated with the indicated concentrations of compound for 24 hours, washed with PBS and then harvested in lysis buffer (50 mM Tris (pH 7.4), 150 mM NaCl, 1 mM EDTA, 0.5% NP-40, phosphatase and protease inhibitors). Following” for “Following”
Target sequence in this assay (P00519 with tags, fused parts or gaps): as above

[8] = tested on: Ba/F3 BCR-ABL1 G250E cells; test: Cell proliferation of Ba/F3 cells expressing BCR-ABL1 G250E; type: cell-based, murine; settings: versus wild-type BCR-ABL1
Description: as §2

[9] = molecular target: T1, BCR-ABL1; test: BCR-ABL1 degradation in primary patient LSCs (CD34+CD38-) by immunoblot; type: cell-based; set-up: induce degradation of both BCR-ABL1 and ABL1 in primary patient LSCs; BCR N-terminal portion (fusion partner, human BCR P11274); endogenous in cells; host or cells: primary CML patient CD34+/CD38- cells (patient 1); the other entry of the earlier key: BCR (P11274, Breakpoint cluster region protein); settings: CD34+/CD38- cells, patient 1, overnight
Description: MNCs isolated from specimens via ficoll, then selected for CD34+ by MACs column. Frozen viables were thawed and cultured in IMDM+40 ug/mL LDL+20% FBS+100 uM BME overnight. Sorted using FACS Aria III, stained with CD34 (BD348801) and CD38 (BD555461).
Cells were lysed in Cell Signaling lysis buffer supplemented with PMSF and Complete Mini protease inhibitor tablets. Protein concentration assessed via BCA assay, ran on 4-15% tris-glycine polyacrylamide gel at 180V for 1 h, transferred overnight at 25V, blocked with 5% BSA in TBST for 1 h and incubated at 4 degree in following primary antibodies.
Target sequence in this assay (P00519 28-1130 limits assumed): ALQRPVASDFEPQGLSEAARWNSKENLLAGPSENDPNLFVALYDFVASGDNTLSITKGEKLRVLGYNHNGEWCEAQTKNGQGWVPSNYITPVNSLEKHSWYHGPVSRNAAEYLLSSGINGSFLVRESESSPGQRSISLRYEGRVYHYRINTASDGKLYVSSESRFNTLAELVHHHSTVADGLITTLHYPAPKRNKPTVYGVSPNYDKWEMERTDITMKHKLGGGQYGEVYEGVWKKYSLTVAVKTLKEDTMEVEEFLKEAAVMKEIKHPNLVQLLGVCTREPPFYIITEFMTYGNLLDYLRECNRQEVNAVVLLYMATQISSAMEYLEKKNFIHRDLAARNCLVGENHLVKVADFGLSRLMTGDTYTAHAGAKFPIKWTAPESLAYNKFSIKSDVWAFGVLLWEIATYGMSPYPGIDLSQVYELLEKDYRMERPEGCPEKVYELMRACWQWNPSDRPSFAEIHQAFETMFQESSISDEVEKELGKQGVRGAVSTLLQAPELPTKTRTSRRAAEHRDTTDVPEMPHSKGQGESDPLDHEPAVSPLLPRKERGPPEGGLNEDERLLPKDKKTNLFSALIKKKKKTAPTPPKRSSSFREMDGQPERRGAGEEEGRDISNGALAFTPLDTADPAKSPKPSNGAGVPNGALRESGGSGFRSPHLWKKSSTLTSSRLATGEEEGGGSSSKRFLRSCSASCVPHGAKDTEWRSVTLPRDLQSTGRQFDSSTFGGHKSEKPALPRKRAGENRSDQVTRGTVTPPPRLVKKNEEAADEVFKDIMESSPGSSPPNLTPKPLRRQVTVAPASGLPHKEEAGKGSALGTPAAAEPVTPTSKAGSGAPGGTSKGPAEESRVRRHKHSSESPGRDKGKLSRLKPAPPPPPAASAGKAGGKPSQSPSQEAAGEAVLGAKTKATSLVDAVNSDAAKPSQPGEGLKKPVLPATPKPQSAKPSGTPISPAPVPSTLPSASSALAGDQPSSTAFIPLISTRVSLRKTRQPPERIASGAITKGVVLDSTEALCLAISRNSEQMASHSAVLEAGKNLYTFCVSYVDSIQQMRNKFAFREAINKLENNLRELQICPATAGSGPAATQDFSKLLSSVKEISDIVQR

[10] = tested on: Ba/F3 BCR-ABL1 T315I cells; test: Cell proliferation of Ba/F3 cells expressing BCR-ABL1 T315I; type: cell-based, murine; settings: versus wild-type BCR-ABL1
Description: as §2

[11] = tested on: BCR-ABL1 transformed Ba/F3 cells; test: Cell proliferation of BCR-ABL1 transformed Ba/F3 cells (MTS); type: cell-based, murine
Description: as §2
Plates were incubated at 37° C. for 72 h and analyzed by standard MTS-based colorimetric assay. Non-linear regression curve-fit analysis and IC50 calculations were performed using Graphpad Prism software.

[12] = molecular target: T1, BCR-ABL1; test: Immunoblot of co-treatment with ponatinib in Ba/F3 BCR-ABL1 wild-type cells; type: cell-based, murine; set-up: BCR N-terminal portion (fusion partner, BCR P11274); expressed in transfected cells; the other entry of the earlier key: BCR (P11274, Breakpoint cluster region protein); settings: overnight co-treatment with ponatinib
Excerpt: as §3
Target sequence in this assay (P00519 28-1130 limits assumed): as above

[13] = tested on: primary CML CD34+ patient cells; test: Apoptosis (Annexin V) in primary CML patient cells; type: cell-based, human; settings: patient 1; no appreciable difference between PROTAC and diastereomer control
Description: Mononuclear cells (MNCs) were isolated from either peripheral blood, bone marrow or leukapheresis samples by Ficoll gradient. MNCs were then treated with ammonium-chloride-potassium (ACK) lysis buffer to remove any residual red blood cells. […] For cell proliferation assays, samples were thawed and cultured in R10. For immunoblot assays, samples were thawed and cultured in IMDM with 40 μg/mL low-density lipoprotein (LDL, Stem Cell), 20% FBS, and 100 μM beta-mercaptaethanol (Sigma).
Sorted samples were recovered overnight in culture in IMDM with 40 μg/mL low-density lipoprotein (LDL, Stem Cell), 20% FBS, and 100 μM beta-mercaptaethanol (Sigma).

Cc1ncsc1-c1ccc(CNC(=O)[C@@H]2C[C@@H](O)CN2C(=O)[C@@H](NC(=O)COCCNc2ncc(C(=O)Nc3ccc(OC(F)(F)Cl)cc3)cc2-c2ccn[nH]2)C(C)(C)C)cc1 [Compound 19]
toxicity or weight loss [1]: no toxicity or weight loss was observed; also recorded: induced no weight loss | tumor volume [1]: no significant increase in tumor volume | DC50 ([2]; extended dose response, 24 hours (FIG. 16A), read-out: DC50 (concentration at which half maximal degradation is observed)): 30 nM | Cmax [3]: well over above both the DC50 and IC50 | IC50 ([4]; K562 (FIG. 16B), read-out: antiproliferative activity IC50): 169 nM

Cc1ccc(NC(=O)c2ccc(CN3CCN(C)CC3)cc2)cc1Nc1nccc(-c2cccnc2)n1 [imatinib]
effect on healthy donor CD34+ cells [5]: had no effect on healthy donor CD34+ cells

NS(=O)(=O)OC[C@@H]1C[C@@H](n2ccc3c(N[C@H]4CCc5ccccc54)ncnc32)C[C@@H]1O [MLN-4924, reference compound]
BCR-Abl and c-Abl levels on co-treatment with GMB-805 (Compound 19) [2]: able to rescue protein levels | BCR-ABL1 and c-ABL1 levels on co-treatment with Compound 10 [2]: inhibited the degradation of BCR-ABL1 and ABL1

Cc1ncsc1-c1ccc(CNC(=O)[C@@H]2C[C@@H](O)CN2C(=O)[C@@H](NC(=O)COCCOc2ccc(-c3cc(Nc4ccc(OC(F)(F)F)cc4)ncn3)cc2)C(C)(C)C)cc1 [Compound 10]
potency at inhibiting proliferation relative to Compound 14 [6]: greater than 2 fold | total ABL1 protein by RPPA ([7]; K562, 5 μM, 8 h): showed a decrease in total ABL1 protein | phosphorylation of GAB2 and SHC ([7]; K562, full serum (10% FBS)): able to reduce phosphorylation of GAB2 and SHC | kinase activity of BCR-ABL1 (pBCR-ABL1 Tyr412, pSTAT-5) ([7]; K562, immunoblot, 8 h and 24 h): able to inhibit the kinase activity of BCR-ABL1 | phosphorylation of GAB2, SHC and STAT5 ([7]; K562, serum-free): able to inhibit phosphorylation of GAB2 and SHC, as well as STAT5 | anti-proliferative activity against G250E mutant [8]: enhanced anti-proliferative activity | degradation of BCR-ABL1 and c-ABL1 ([2]; K562 (FIG. 5A) and Ba/F3 (FIG. 5C) cells, dose- and time-dependent): induce the degradation of BCR-ABL1 and c-ABL1 | Dmax ([2]; K562, read-out: Dmax (%) [cell line]): 95% | DC50 ([2]; read-out: DC50): 340 nM | degradation of BCR-ABL1 and ABL1 [9]: able to induce degradation of both BCR-ABL1 and ABL1 | effect of T315I mutation on potency [10]: had little effect on the potency of Compound 10 | IC50 ([11]; Mus musculus, BaF3, single agent, 72 h (FIG. 6A), read-out: IC50, dose response titration): 1110 nM | reduction of the IC50 of imatinib by co-treatment ([11]; co-treatment of imatinib with 2.5 μM Compound 10): ~3 fold | effect of co-treatment with ponatinib (immunoblot) [12]: enhanced the ability of Compound 10 to induce degradation | IC50 ([4]; FIG. 5B/D: K562 and Ba/F3 BCR-ABL1 cells, read-out: cell proliferation IC50): ~1000 nM | apoptosis in sorted progenitor (CD34+CD38+) and stem (CD34+CD38-) cells [13]: induced apoptosis in the progenitor cells and to a lesser extent in the stem cells

CC[C@H](C)[C@H](NC(=O)[C@H]([C@@H](C)CC)N(C)C(C)=O)C(=O)N[C@H](C(=O)N[C@@H](CC(C)C)C(=O)[C@@]1(C)CO1)[C@@H](C)O [epoxomicin, reference compound]
BCR-Abl and c-Abl levels on co-treatment with GMB-805 (Compound 19) [2]: restored protein concentration back to untreated levels | BCR-ABL1 and c-ABL1 levels on co-treatment with Compound 10 [2]: restored the levels of BCR-ABL1 and c-ABL1
